How the values were obtained:
Format in all cases: in vivo
[1] = test system: CNS chloroleukemia (metastatic, leukemic CNS tumors); assay: Long term effect of CoQ10 on CNS chloroleukemia in paraplegic Fischer 344 rats (Example 2)
Procedure: FIG. 4: Long-term Effect of CoQ10 on CNS Leukemia. 300 paraplegic animals with overt CNS leukemia were randomized into two groups of 150 animals each: one received phosphate buffered saline (PBS) and the other group received 100 mg/kg CoQ10 once daily starting on day 1 through day 28 (first cycle). A second cycle of 100 mg/kg CoQ10 once daily started on day 35 and continued through day 62. Animals received two cycles of 28 days each of CoQ10. On days 173 and 195 as indicated by *, 5 animals were sacrificed for necropsy and pathology analysis.
The model of CNS chloroleukemia in Fischer 344 rats provided in Example 1 was used for long term studies of the treatment of metastatic, leukemic CNS tumors. As in Example 1 chloroleukemic cells were injected into the rats as newborns and lipopolysaccharide (LPS) was given as a first-line of treatment. The cure rate with this regimen was approximately 50%, and approximately 10% of survivors developed CNS leukemia as judged by their motor skills and the presence of quadriplegia and paraplegia.
For this study of long term effect of CoQ10 on CNS leukemia, 300 paraplegic animals with overt CNS leukemia were randomized into two groups of 150 animals each. Group one received a saline control. Group two received 100 mg/kg CoQ10 once daily starting on day 1 through day 28 (first cycle). The second cycle started on day 35 and continued through day 62. […]

[2] = test system: CNS chloroleukemia (chloroleukemic cell line MIAC51); assay: Treatment of CNS chloroleukemia in paraplegic Fischer 344 rats with CoQ10 IV (Example 1)
Procedure: (§1) A model of CNS chloroleukemia was created using Fischer 344 rats, in which chloroleukemic cells were injected into the rats as newborns and lipopolysaccharide (LPS) was given as a first-line of treatment. The cure rate with this regimen was approximately 50%, and approximately 10% of survivors developed CNS leukemia as judged by their motor skills and the presence of quadriplegia and paraplegia.
(§2) For this study, 2400 Fischer 344 neonates were injected with the chloroleukemic cell line MIAC51 and treated with LPS. All animals with overt signs of leukemia, i.e., systemic disease, were sacrificed by day 26. […] Of that cohort, 150 animals were selected with hind leg paraplegia on day 40, see FIGS. 1A and 1B. These animals were then re-randomized into 5 groups: group 1 received no treatment, group 2 received excipient control IV, group 3 received 5 mg/kg CoQ10 IV (i.e., 15 mg/kg/day), group 4 received 10 mg/kg IV (i.e., 30 mg/kg/day), and group 5 received 25 mg/kg IV (i.e., 75 mg/kg/day) for 4 weeks, 3 times daily.

chloroleukemic cells = assay: First-line lipopolysaccharide treatment of chloroleukemia in Fischer 344 rats injected as newborns (model creation)
Procedure: as §1, §2

Compound | necropsy and pathological analysis for chloroleukemia or CNS tumors ([1]; 100 mg/kg CoQ10, five animals sacrificed on days 173 and 195) | recovery of motor skills / ability to walk ([1]; 100 mg/kg IV once daily, two cycles of 28 days (days 1-28 and 35-62)) | signs of improvement (CNS abnormalities, motor skills) ([2]; 5 mg/kg IV 3 times daily (15 mg/kg/day) for 4 weeks, group 3) | MRI for tumor cells ([2]; 5 mg/kg IV 3 times daily (15 mg/kg/day), group 3) | signs of improvement (CNS abnormalities, motor skills) ([2]; 10 mg/kg IV 3 times daily (30 mg/kg/day) for 4 weeks, group 4) | MRI for tumor cells ([2]; 10 mg/kg IV 3 times daily (30 mg/kg/day), group 4) | recovery of motor skills / ability to walk ([2]; 25 mg/kg IV three times per day (75 mg/kg/day) for 4 weeks, group 5) | MRI for tumor cells ([2]; 25 mg/kg IV three times per day (75 mg/kg/day), group 5, FIGS. 3A and B) | mortality due to CNS tumors (mortality curves) ([2]; FIG. 2, animals treated with or without CoQ10, 5, 10, 25 mg/kg IV 3 times daily) | cure rate (chloroleukemic cells; LPS as first-line treatment after injection of chloroleukemic cells into newborn rats) | survivors that developed CNS leukemia (motor skills, quadriplegia and paraplegia) (chloroleukemic cells; survivors of LPS first-line regimen)
COC1=C(OC)C(=O)C(C/C=C(\C)CC/C=C(\C)CC/C=C(\C)CC/C=C(\C)CC/C=C(\C)CC/C=C(\C)CC/C=C(\C)CC/C=C(\C)CC/C=C(\C)CCC=C(C)C)=C(C)C1=O [CoQ10, Coenzyme Q10] | No evidence of chloroleukemia or CNS tumors were found | significant recovery of their motor skills and regained their ability to walk | did not exhibit any signs of improvement | positive for tumor cells | did not exhibit any signs of improvement | positive for tumor cells | significant recovery of their motor skills and regained their ability to walk | lack of tumor cells | decrease in mortality due to CNS tumors is observed in a dose-dependent manner | – | –
lipopolysaccharide [lipopolysaccharide (LPS)] | – | – | – | – | – | – | – | – | – | approximately 50% | approximately 10%
